# Measurements from patent US8017611B2, “Pyridine and pyrazine derivatives -083” (AstraZeneca AB, priority 2007, dated 2011).
# Marks after values point to notes of the source that are not given here.
# Biological target: T1, recombinant Axl tyrosine kinase (Homo sapiens, UniProt P30530)
# T1 construct: encompassing amino acids 473 to 894 of Axl; GST (N); made in house; host or cells: SF126 insect cells
# T1 sequence (P30530 473-894): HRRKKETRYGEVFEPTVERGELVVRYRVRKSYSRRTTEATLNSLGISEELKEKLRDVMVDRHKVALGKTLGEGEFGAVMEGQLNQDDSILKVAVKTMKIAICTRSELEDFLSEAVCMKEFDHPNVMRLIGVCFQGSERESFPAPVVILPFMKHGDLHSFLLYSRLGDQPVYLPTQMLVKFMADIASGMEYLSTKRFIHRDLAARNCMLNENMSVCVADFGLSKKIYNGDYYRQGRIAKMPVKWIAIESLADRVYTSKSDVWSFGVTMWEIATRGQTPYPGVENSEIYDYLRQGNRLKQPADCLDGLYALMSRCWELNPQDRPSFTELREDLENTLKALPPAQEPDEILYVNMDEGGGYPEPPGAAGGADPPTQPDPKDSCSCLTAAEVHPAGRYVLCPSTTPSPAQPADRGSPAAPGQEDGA
# Assay: In vitro Axl kinase assay (AlphaScreen), Test (a)
# Format: biochemical
# Settings: 1 μM; mean calculated from a larger number of replicates than the first value
# Procedure: Test compounds were prepared as 10 mM stock solutions in dimethylsulphoxide (DMSO) and diluted in DMSO as required. Aliquots (120 nl) of compound dilutions were filled into the wells of a Greiner 384-well low volume (LV) white polystyrene plate (Greiner Bio-one) using acoustic dispensing (Labcyte Echo 550). A 10 μl mixture of recombinant purified Axl enzyme, biotinylated peptide substrate (Biotin poly-GAT; CisBio, Catalogue No. 61GATBLB), 0.2 μM adenosine triphosphate (ATP) and a buffer solution [comprising 20 mM Tris-HCl pH 7.5 buffer, 0.01% v/v Tween, 5 mM dithiothreitol (DTT) and 10 mM manganese chloride] was incubated with the compounds at room temperature for 20 minutes.
# Control wells that produced a minimum signal corresponding to 100% inhibited enzyme were created by adding 10 μM of Staurosporine.
# The percentage kinase inhibition value is the percentage of Axl tyrosine kinase activity inhibited by the test compound at a concentration of 1 μM.
row,Structure (SMILES),"% Axl tyrosine kinase inhibition at 1 μM concentration (second value, †) [%]"
1,Nc1ncc(-c2ccc(CN3CCOCC3)cc2)cc1-c1nc2cnccc2o1 [Example 8A.18],99.0
2,Nc1ncc(-c2cccc(N3CCOCC3)c2)cc1-c1nc2ncccc2o1 [Example 10A.1],52.6

# Same assay, conditions: test compound at 1 μM; first value quoted
row,Structure (SMILES),% Axl tyrosine kinase inhibition at 1 μM concentration
1,Nc1ncc(-c2cccc(C(=O)NC3CC3)c2)cc1-c1nc2cnccc2o1 [Example 8A.7],87.8%
2,Nc1ncc(-c2ccc(C(=O)N3CCC(O)CC3)cc2)cc1-c1nc2cnccc2o1 [Example 8A.8],97.1%
3,NC(=O)c1ccc(-c2cnc(N)c(-c3nc4cnccc4o3)c2)cc1 [Example 8A.9],98.7%
4,Cc1ccc(S(=O)(=O)N2CCOCC2)cc1-c1cnc(N)c(-c2nc3cnccc3o2)c1 [Example 8A.10],13.1***** %
5,N#Cc1cccc(-c2cnc(N)c(-c3nc4cnccc4o3)c2)c1 [Example 8A.11],89.6%
6,Nc1ncc(-c2ccc(C(=O)N3CCOCC3)cc2)cc1-c1nc2cnccc2o1 [Example 8A.12],97.8%
7,Nc1ncc(-c2cccc(S(=O)(=O)N3CCOCC3)c2)cc1-c1nc2cnccc2o1 [Example 8A.13],71.3%
8,N#CCc1ccc(-c2cnc(N)c(-c3nc4cnccc4o3)c2)cc1 [Example 8A.16],99.4%
9,CN(C)CCCNC(=O)c1ccc(-c2cnc(N)c(-c3nc4cnccc4o3)c2)cc1 [Example 8A.17],99.8%
10,Nc1ncc(-c2ccc(CN3CCOCC3)cc2)cc1-c1nc2cnccc2o1 [Example 8A.18],98.9%
11,CN1CCN(C(=O)c2cccc(-c3cnc(N)c(-c4nc5cnccc5o4)c3)c2)CC1 [Example 8A.19],94.3%
12,Nc1ncc(-c2cccc(CN3CCCCC3)c2)cc1-c1nc2cnccc2o1 [Example 8A.20],95.2%
13,Nc1ncc(-c2cccc(N3CCCCC3)c2)cc1-c1nc2cnccc2o1 [Example 8A.21],85.8%
14,Nc1ncc(-c2cccc(C(=O)NCCN3CCCC3)c2)cc1-c1nc2cnccc2o1 [Example 8A.22],95.3%
15,NCc1ccc(-c2cnc(N)c(-c3nc4cnccc4o3)c2)cc1 [Example 8A.23],99.1%
16,CN(C)CCNC(=O)c1cccc(-c2cnc(N)c(-c3nc4cnccc4o3)c2)c1 [Example 8A.24],95.6%
17,Nc1ncc(-c2ccc(C(=O)NCCO)cc2)cc1-c1nc2cnccc2o1 [Example 8A.25],98.7%
18,Nc1ncc(-c2cccc(NC(=O)C3CCNCC3)c2)cc1-c1nc2cnccc2o1 [Example 8A.26],97.9%
19,NCc1cccc(-c2cnc(N)c(-c3nc4cnccc4o3)c2)c1 [Example 8A.27],98.6%
20,Nc1ncc(-c2cccc(-c3ccn[nH]3)c2)cc1-c1nc2cnccc2o1 [Example 8A.28],97.5%
21,N#Cc1cccc(-c2cnc(N)c(-c3nc4cccnc4o3)c2)c1 [Example 9A.1],89.8%

row,Structure (SMILES),% Axl tyrosine kinase inhibition at 1 μM concentration
1,Nc1ncc(-c2ccc(C(=O)NCCO)cc2)cc1-c1nc2cccnc2o1 [Example 9A.2],97.0%
2,CC(C)(C)OC(=O)N1CCC(C(=O)Nc2cccc(-c3cnc(N)c(-c4nc5cccnc5o4)c3)c2)CC1 [Example 9A.3],73.4%
3,CN(C)CCNC(=O)c1cccc(-c2cnc(N)c(-c3nc4cccnc4o3)c2)c1 [Example 9A.5],75.2%
4,Nc1ncc(-c2ccc(C(=O)N3CCC(O)CC3)cc2)cc1-c1nc2cccnc2o1 [Example 9A.6],95.6%
5,CCN(CC)CCNC(=O)c1cccc(-c2cnc(N)c(-c3nc4cccnc4o3)c2)c1 [Example 9A.7],91.7%
6,Nc1ncc(-c2cccc(CN3CCCC3)c2)cc1-c1nc2cccnc2o1 [Example 9A.8],96.5%
7,Nc1ncc(-c2cccc(CN3CCCCC3)c2)cc1-c1nc2cccnc2o1 [Example 9A.9],95.3%
8,CN(C)CCCNC(=O)c1ccc(-c2cnc(N)c(-c3nc4cccnc4o3)c2)cc1 [Example 9A.11],98.8%
9,NCc1ccc(-c2cnc(N)c(-c3nc4cccnc4o3)c2)cc1 [Example 9A.13],98.3%
10,Nc1ncc(-c2ccc(S(=O)(=O)NCCO)cc2)cc1-c1nc2cccnc2o1 [Example 9A.14],97.0%
11,N#CCc1ccc(-c2cnc(N)c(-c3nc4cccnc4o3)c2)cc1 [Example 9A.16],97.7%
12,Nc1ncc(-c2cccc(C(=O)NC3CC3)c2)cc1-c1nc2cccnc2o1 [Example 9A.17],73.2%
13,CN1CCN(C(=O)c2cccc(-c3cnc(N)c(-c4nc5cccnc5o4)c3)c2)CC1 [Example 9A.18],80.8%
14,Nc1ncc(-c2ccc(CO)s2)cc1-c1nc2cccnc2o1 [Example 9A.19],95.6%
15,Nc1ncc(-c2ccc(CN3CCOCC3)cc2)cc1-c1nc2cccnc2o1 [Example 9A.21],95.6%
16,Nc1ncc(-c2cccc(C(=O)NCCN3CCOCC3)c2)cc1-c1nc2cccnc2o1 [Example 9A.22],81.9%
17,Nc1ncc(-c2cccc(N3CCOCC3)c2)cc1-c1nc2ncccc2o1 [Example 10A.1],55.3%
18,Nc1ncc(-c2cccc(C(=O)NCCN3CCOCC3)c2)cc1-c1nc2ncccc2o1 [Example 10A.2],63.9%
19,CC(C)(C)OC(=O)N1CCC(C(=O)Nc2cccc(-c3cnc(N)c(-c4nc5ncccc5o4)c3)c2)CC1 [Example 10A.3],87.2%
20,NCc1ccc(-c2cnc(N)c(-c3nc4ncccc4o3)c2)cc1 [Example 10A.4],99.0%

# Same assay, conditions: test compound at 1 μM; first value quoted; read-out: % Axl tyrosine kinase inhibition at 1 μM concentration
row,Structure (SMILES),inhibition at 1 µM [%]
1,"Nc1ncc(-c2cnn(C3CCNCC3)c2)cc1-c1nc2cccnc2o1 [Example 9, 3-Oxazolo[5,4-b]pyridin-2-yl-5-[1-(4-piperidyl)pyrazol-4-yl]pyridin-2-amine]",98.8
2,"Nc1ncc(-c2cnn(C3CCNCC3)c2)cc1-c1nc2ncccc2o1 [Example 10, 3-Oxazolo[4,5-b]pyridin-2-yl-5-[1-(4-piperidyl)pyrazol-4-yl]pyridin-2-amine]",98.8

# Same assay, conditions: test compound at 30 μM
row,Structure (SMILES),% of Axl tyrosine kinase activity inhibited at a concentration of 30 μM
1,Cc1ccc(S(=O)(=O)N2CCOCC2)cc1-c1cnc(N)c(-c2nc3cnccc3o2)c1 [Example 8A.10],*****the compound disclosed in Example 8A.10 inhibited 79.5% of Axl tyrosine kinase activity at a concentration of 30 μM.
